The values that follow come from patent publication US11266578B2, “Composition, kit and method for coloring keratinous fibers” (Henkel AG & Co. KGaA, priority 2017, dated 2022).

A short description of the first data set: Water-solubility at 1 wt. % in distilled water. The class given is physicochemical. As to conditions: 1 wt. % in ~pH7 distilled water at RT; clear = soluble, turbid = insoluble. How it is done:
Water-solubility of a chemical compound, and, for instance, water insolubility of condensation-curable amino-silicone pre-polymers, can be provided by the supplier. It can also be confirmed or determined as follows. Water-solubility was assessed by mixing 1 wt. % of the material in near neutral (˜pH7) distilled water at RT, followed by a brief vortex for homogeneity. A clear solution indicated a water-soluble material, whereas turbidity indicated an at least partly water-insoluble material.
For `CCO[Si](C)(C)CCCN` [3-aminopropyldimethylethoxysilane], the water-solubility result is listed as “water soluble”.
Still for that read-out and setting: the result for `CCO[Si](CCCN)(OCC)OCC` [Dynasylan® AMEO, 3-aminopropyltriethoxysilane] reads “soluble”; that for `C[Si](C)(CCCN)O[Si](C)(C)CCCN` [GP-967, Bis 3-aminopropyl tetramethyldisiloxane], “turbid dispersion”; that for `CCO[Si](CCCNCCN)(OCC)OCC` [N-(2-aminoethyl)-3-aminopropyltriethoxysilane], “water soluble”.
Still for that read-out and setting: the result for `CCO[Si](CCCNCCC[Si](OCC)(OCC)OCC)(OCC)OCC` [SIB1824.5, bis(triethoxy-silylpropyl) amine] reads “insoluble”.
Same read-out and setting: the result for `CCO[Si](CCCN1CCC[Si]1(OCC)OCC)(OCC)OCC` [SIT8187.2, 1-(3-(triethoxysilyl)propyl)-2,2-diethoxi-1-aza-2-silacyclopentane] reads “insoluble”.

Staying with this data set, now noted: Table 17.
Regarding `CCO[Si](C)(CCCN)OCC` [3-Aminopropylmethyl-diethoxysilane], the “solubility (in Material Type)” value is reported as “silane (soluble)”.
The same measure, in the same setting: the result for `CCO[Si](C)(CCCNCCC[Si](C)(OCC)OCC)OCC` [Bis[methyldiethoxysilyl-propyl] amine] reads “silane (non soluble)”; that for `C[Si]1(C)O[Si](C)(C)O[Si](C)(C)O[Si](C)(C)O[Si](C)(C)O1` [Decamethylcyclopenta-siloxane, Decamethylcyclopentasiloxane], “(soluble)”; that for `CCO[Si](CCCNCCN)(OCC)OCC` [N-(2-aminoethyl)-3-aminopropyltriethoxysilane], “silane (soluble)”.
